Target: T1, B1R receptor of the rat (rB1R) (Rattus norvegicus, UniProt P97583)
T1 construct: expressed in transfected cells; host or cells: CHO K1 cells
T1 sequence (P97583 1-337): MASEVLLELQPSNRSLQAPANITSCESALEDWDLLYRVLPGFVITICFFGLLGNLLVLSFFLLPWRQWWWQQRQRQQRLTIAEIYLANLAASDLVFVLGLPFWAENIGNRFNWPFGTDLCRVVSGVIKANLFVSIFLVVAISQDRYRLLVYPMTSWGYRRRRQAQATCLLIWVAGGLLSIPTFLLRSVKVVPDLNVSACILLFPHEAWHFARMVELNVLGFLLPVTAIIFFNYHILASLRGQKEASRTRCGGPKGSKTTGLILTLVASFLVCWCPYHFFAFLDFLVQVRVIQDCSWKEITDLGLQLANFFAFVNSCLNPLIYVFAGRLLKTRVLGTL
Assay: Functional investigation on the bradykinin 1 receptor (B1R), FLIPR Ca2+ assay, rB1R cells
Type: cell-based
Details: CHO K1 cells with rat B1R, agonist Des-Arg9 bradykinin, % of maximum achievable inhibition; for inhibition at 10 µM: CHO-K1, 10 μM test substance, read-out: B1R antagonism, rat [10 μM] % inhibition
Method in brief: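 Ca2+ influx is measured as peak Fluo-4 fluorescence in a FLIPR protocol with two substance additions, following Lys-Des-[MUT] bradykinin (0.5 nM) or Des-[MUT] bradykinin (100 nM) challenge. Varying antagonist concentrations give % inhibition relative to maximum achievable and an IC50. Determinations in duplicate or triplicate, repeated independently (N>=2).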

| SMILES | inhibition at 10 µM [%] | B1R antagonism, rat [10 μM] % inhibition (10 μM test substance, 10 µM) [%] |
| --- | --- | --- |
| O=C(Cn1ccc2ccc(N3CCn4ccc(Cl)c4C3=O)cc21)N1CCC2(CC1)CCN(c1ccncc1)CC2 [Compound G-33, 8-Chloro-2-[1-[2-oxo-2-(9-pyridin-4-yl-3,9-diazaspiro[5.5]undecan-3-yl)-ethyl]-1H-indol-6-yl]-3,4-dihydro-2H-pyrrolo[1,2-a]pyrazin-1-one] | 46 | – |
| COc1cc(C)c(S(=O)(=O)Nc2cccc3ccn(CC(=O)N4CCC5(CC4)CCN(Cc4ccccc4)C5=O)c23)c(C)c1 [G_CC-32, N-[1-[2-(3-Benzyl-4-oxo-3,8-diazaspiro[4.5]decan-8-yl)-2-oxo-ethyl]-1H-indol-7-yl]-4-methoxy-2,6-dimethyl-benzenesulfonic acid amide] | 101 | – |
| O=C(CCn1ccc2ccc(N3Cc4cccc(Cl)c4C3=O)cc21)N1CCC2(CC1)CCN(c1ccncc1)CC2 [G_CC-67, 7-Chloro-2-[1-[3-oxo-3-(3-pyridin-4-yl-3,9-diazaspiro[5.5]undecan-9-yl)-propyl]-1H-indol-6-yl]-2,3-dihydro-isoindol-1-one] | – | 95 |
| COc1cc(C)c(S(=O)(=O)Nc2ccc3ccn(CC(=O)N(C)CCCN4CCN(c5ccncc5)CC4)c3c2)c(C)c1 [G_CC-76, 2-[6-[[(4-Methoxy-2,6-dimethyl-phenyl)sulfonyl]amino]-1H-indol-1-yl]-N-methyl-N-[3-(4-pyridin-4-yl-piperazin-1-yl)-propyl]-acetamide] | 104 | – |
| COc1cc(C)c(S(=O)(=O)Nc2cccc3ccn(CC(=O)N(C)CCCN4CCN(c5ccncc5)CC4)c23)c(C)c1 [G_CC-88, 2-[7-[[(4-Methoxy-2,6-dimethyl-phenyl)sulfonyl]amino]-1H-indol-1-yl]-N-methyl-N-[3-(4-pyridin-4-yl-piperazin-1-yl)-propyl]-acetamide] | 101 | – |
| COc1cc(C)c(S(=O)(=O)Nc2cccc3ccn(CC(=O)N4CCC5(CC4)CCN(c4ccncc4)CC5)c23)c(C)c1 [G_CC-91, 4-Methoxy-2,6-dimethyl-N-[1-[2-oxo-2-(3-pyridin-4-yl-3,9-diazaspiro-[5.5]undecan-9-yl)-ethyl]-1H-indol-7-yl]-benzenesulfonic acid amide] | 100 | – |

Second part, the compound after the results:

| inhibition at 10 µM [%] | B1R antagonism, rat [10 μM] % inhibition (10 μM test substance, 10 µM) [%] | SMILES |
| --- | --- | --- |
| 70 | – | COc1cc(C)c(S(=O)(=O)Nc2ccc3ccn(CC(=O)N4CCC(N5CCN(C)CC5)CC4)c3c2)c(C)c1 [G_CC-2, 4-Methoxy-2,6-dimethyl-N-[1-[2-[4-(4-methyl-piperazin-1-yl)-piperidin-1-yl]-2-oxo-ethyl]-1H-indol-6-yl]-benzenesulfonic acid amide] |
| 100 | – | Cc1cc(S(=O)(=O)Nc2ccc3ccn(CC(=O)N4CCN(CC5CCN(C)CC5)CC4)c3c2)c(C)cc1Cl [G_CC-8, 4-Chloro-2,5-dimethyl-N-[1-[2-[4-[(1-methyl-piperidin-4-yl)-methyl]-piperazin-1-yl]-2-oxo-ethyl]-1H-indol-6-yl]-benzenesulfonic acid amide] |
| 103 | – | COc1cc(C)c(S(=O)(=O)Nc2cccc3ccn(CCC(=O)N4CCN(CC5CCN(C)CC5)CC4)c23)c(C)c1 [G_CC-43, 4-Methoxy-2,6-dimethyl-N-[1-[3-[4-[(1-methyl-piperidin-4-yl)-methyl]-piperazin-1-yl]-3-oxo-propyl]-1H-indol-7-yl]-benzenesulfonic acid amide] |
| 102 | – | COc1cc(C)c(S(=O)(=O)Nc2cccc3ccn(CCC(=O)NCCC4CCN(c5ccncc5)CC4)c23)c(C)c1 [G_CC-47, 3-[7-[[(4-Methoxy-2,6-dimethyl-phenyl)sulfonyl]amino]-1H-indol-1-yl]-N-[2-(1-pyridin-4-yl-piperidin-4-yl)-ethyl]-propionamide] |
| 96 | – | COc1cc(C)c(S(=O)(=O)Nc2cccc3ccn(CCC(=O)N4CCC5(CC4)CCN(c4ccncc4)CC5)c23)c(C)c1 [G_CC-54, 4-Methoxy-2,6-dimethyl-N-[1-[3-oxo-3-(3-pyridin-4-yl-3,9-diazaspiro[5.5]undecan-9-yl)-propyl]-1H-indol-7-yl]-benzenesulfonic acid amide] |
| 99 | – | Cc1cc(S(=O)(=O)Nc2cccc3ccn(CCC(=O)N4CCN(CC5CCN(C)CC5)CC4)c23)c(C)cc1Cl [G_CC-62, 4-Chloro-2,5-dimethyl-N-[1-[3-[4-[(1-methyl-piperidin-4-yl)-methyl]-piperazin-1-yl]-3-oxo-propyl]-1H-indol-7-yl]-benzenesulfonic acid amide] |

Reference: patent US8492559B2, “Substituted indole compounds” (Gruenenthal GmbH, priority 2009, dated 2013)
